# Patent US20230236206A1, “PREDICTING A SEPSIS CONDITION” (PHARM-ANALYT LABOR GMBH, priority 2020, published 2023)
# Test: Hydrophilicity of BM1
# Type: physicochemical
structure (smiles),measurement,value
"C[C@@H](O)[C@H](NC(=O)Nc1ncnc2c1ncn2[C@@H]1O[C@H](CO)C(O)C1O)C(=O)O (stereo partly drawn) [BM1, N6-Carbamoylthreonyl-D-adenosine]",Hydrophilicity,very hydrophilic
